Source: publication PMC6254728, “Synthesis and Anti-Human Immunodeficiency Virus Type 1 Activity of (E)-N-Phenylstyryl-N-alkylacetamide Derivatives” (Molecules, 2009)

Target: T1, HIV-1 reverse transcriptase (HIV-1 RT) (HIV-1 M:B_HXB2R, UniProt P04585)
T1 construct: gene gag-pol; recombinant HIV-1 RT used with commercial ELISA kit (Roche Molecular Biochemicals); mature chains cut from Gag-Pol polyprotein; with p51 RT
Test: RT ELISA (DIG-labelled reaction mixture, anti-DIG-POD, ABTS; Roche kit)
Assay type: biochemical
Conditions: 37 °C, 15 h
Description: RT ELISA (DIG-labelled reaction mixture, anti-DIG-POD, ABTS; Roche kit) on HIV-1 reverse transcriptase (HIV-1 RT)

SMILES	IC50
CC(=O)N(C)/C=C/c1ccccc1Br [5c, (E)-N-(2-bromostyryl)-N-methylacetamide]	339 ± 107 µM
CC(=O)N(/C=C/c1ccccc1Br)C(C)=O [5f, (E)-N-(2-bromostyryl)-N-acetylacetamide]	320 ± 22 µM
CC(=O)N(/C=C/c1ccccc1Br)Cc1c(F)cccc1F [5h, (E)-N-(2-bromostyryl)-N-2’,6’-difluorobenzylacetamide]	295 ± 9 µM
CC(=O)N(/C=C/c1ccccc1Br)Cc1cc(F)cc(F)c1 [5i, (E)-N-(2-bromostyryl)-N-3’,5’-difluorobenzylacetamide]	97 ± 13 µM
CC(=O)N(C)/C=C/c1ccccc1Cl [5k, (E)-N-(2-chlorostyryl)-N-methylacetamide]	434 ± 44 µM
CCN(/C=C/c1ccccc1Cl)C(C)=O [5l, (E)-N-(2-chlorostyryl)-N-ethylacetamide]	521 ± 11 µM
CC(=O)N(C)/C=C/c1ccccc1F [5n, (E)-N-(2-fluorostyryl)-N-methylacetamide]	477 ± 107 µM
CC(=O)N(C)/C=C/c1ccccc1C [5p, (E)-N-(2-methylstyryl)-N-methylacetamide]	487 ± 27 µM
COc1ccc(/C=C/N(C)C(C)=O)c(OC)c1 [5r, (E)-N-(2,4-dimethoxystyryl)-N-methylacetamide]	373 ± 40 µM
O=C(O)P(=O)(O)O [PFA, reference compound]	5 µM
